In EP0322251A2, “Benzothiopyran derivatives” (BEECHAM GROUP PLC, priority 1987, dated 1989):

System: Spontaneously hypertensive rats
Test: Blood pressure lowering activity, tail cuff method
Assay type: in vivo
Method: Blood Pressure Lowering Activity
Systolic blood pressures were recorded by a modification of the tail cuff method described by I.M. Claxton, M.G. Palfreyman, R.H. Poyser, R.L. Whiting, European Journal of Pharmacology, 37, 179 (1976). A W+W BP recorder, model 8005 was used to display pulses. Prior to all measurements rats were placed in a heated environment (33.5 ± 0.5°C) before transfer to a restraining cage. Each determination of blood pressure was the mean of at least 6 readings. Spontaneously hypertensive rats (ages 12-18 weeks) with systolic blood pressures >180 mmHg were considered hypertensive.

`Cc1ccc2c(c1)C(N1CCCC1=O)=CC(C)(C)S2(=O)=O` [Example 2, 4-(2-Oxopyrrolidin-1-yl)-2,2,6-trimethyl-2H-1-benzothiapyran-1,1-dioxide] was tested, and the “% Change in Systolic Blood Pressure” value (dose 10 mg/kg, 1 hour post dose) was -50 ± 2 (n=5) %, the “% Change in Systolic Blood Pressure” value (dose 10 mg/kg, 2 hours post dose) was -34 ± 4 (n=5) % and the “% Change in Systolic Blood Pressure” value (dose 10 mg/kg, 4 hours post dose) was -22 ± 3 (n=4) %. The “% Change in Systolic Blood Pressure” value (dose 10 mg/kg, 6 hours post dose) was -15 ± 2 (n=4) %.

In the case of `Cc1ccc2c(c1)[C@@H](N1CCCCC1=O)[C@H](O)C(C)(C)S2(=O)=O` (relative stereo) [Example 3, Trans 3.4-dihydro-4-(2-oxopiperidin-1-yl)-2,2,6-trimethyl-2H-1-benzothiapyran-3-ol-1,1-dioxide], the “% Change in Systolic Blood Pressure” value (dose 30 mg/kg, 1 hour post dose) is reported as -25 (n=2) %, the “% Change in Systolic Blood Pressure” value (dose 30 mg/kg, 2 hours post dose) is reported as -31 ± 7 (n=3) % and the “% Change in Systolic Blood Pressure” value (dose 30 mg/kg, 4 hours post dose) is reported as -16 ± 2 (n=3) %. For the same compound, the “% Change in Systolic Blood Pressure” value (dose 30 mg/kg, 6 hours post dose) was -14 ± 3 (n=3) %.

For `Cc1ccc2c(c1)C(N1CCCCC1=O)[C@H](O)C(C)(C)S2` (stereo partly drawn) [Example 1, Trans 3,4-Dihydro-4-(2-oxopiperidin-1-yl)-2,2,6-trimethyl-2H-1-benzothiapyran-3-ol], the “% Change in Systolic Blood Pressure” value (dose 1 mg/kg, 1 hour post dose) was -22 ± 5 (n=6) %, the “% Change in Systolic Blood Pressure” value (dose 1 mg/kg, 2 hours post dose) was -17 ± 6 (n=6) % and the “% Change in Systolic Blood Pressure” value (dose 1 mg/kg, 4 hours post dose) was -12 ± 11 (n=6) %.
